Measurements from patent US5770382A, “Tricyclic retinoids, methods for their production and use” (Ligand Pharmaceuticals, Inc., priority 1995, dated 1998).
“Also recorded” adds a separate entry of the source.

Legend:
RAR and RXR receptors = experiment: Co-transfection assay, summary for RARs and RXRs; format: cell-based; conditions: for potency profile in comparison to 9-cis retinoic acid (in words): versus 9-cis
Experimental: (§1) Utilizing the "cis-trans" or "co-transfection" assay described by Evans et al., Science, 240:889-95 (May 13, 1988), the disclosure of which is herein incorporated by reference, the retinoid compounds of the present invention were tested and found to have strong, specific activity as either selective RAR agonists, selective RXR agonists, or as pan-agonist activators of both RAR and RXR receptors. This assay is described in further detail in U.S. Pat. Nos. 4,981,784 and 5,071,773, the disclosures of which are incorporated herein by reference.
(§2) The co-transfection assay provides a method for identifying functional agonists which mimic, or antagonists which inhibit, the effect of native hormones, and quantifying their activity for responsive IR proteins. In this regard, the co-transfection assay mimics an in vivo system in the laboratory. Importantly, activity in the co-transfection assay correlates very well with known in vivo activity, such that the co-transfection assay functions as a qualitative and quantitative predictor of a tested compounds Ln vivo pharmacology. See, e.g., T. Berger et al. 41 J. Steroid Biochem. Molec. Biol. 733 (1992), the disclosure of which is herein incorporated by reference.
(§3) In the co-transfection assay, a cloned cDNA for an IR (e.g., human RARα, RARβ, RXRγ) under the control of a constitutive promoter (e.g., the SV 40 promoter) is introduced by transfection (a procedure to induce cells to take up foreign genes) into a background cell substantially devoid of endogenous IRs. This introduced gene directs the recipient cells to make the IR protein of interest. A second gene is also introduced (co-transfected) into the same cells in conjunction with the IR gene. This second gene, comprising the cDNA for a reporter protein, such as firefly luciferase (LUC), controlled by an appropriate hormone responsive promoter containing a hormone response element (HRE). This reporter plasmid functions as a reporter for the transcription-modulating activity of the target IR. Thus, the reporter acts as a surrogate for the products (mRNA then protein) normally expressed by a gene under control of the target receptor and its native hormone.
(§4) The co-transfection assay can detect small molecule agonists or antagonists of target IRs. Exposing the transfected cells to an agonist ligand compound increases reporter activity in the transfected cells. This activity can be conveniently measured, e.g., by increasing luciferase production, which reflects compound-dependent, IR-mediated increases in reporter transcription. […] . Increasing concentrations of a suspected antagonist will decrease the reporter signal (e.g., luciferase production). The co-transfection assay is therefore useful to detect both agonists and antagonists of specific IRs. Furthermore, it determines not only whether a compound interacts with a particular IR, but whether this interaction mimics (agonizes) or blocks (antagonizes) the effects of the native regulatory molecules on target gene expression, as well as the specificity and strength of this interaction.
To determine RAR and/or RXR agonist activity of the compounds of the present invention, the CV-1 cells were transiently transfected by calcium phosphate coprecipitation according to the procedure of Berger et al., 41 J.Steroid Biochem. Mol. Biol., 733 (1992) with the following receptor expressing plasmids: pRShRARα: Giguere et al., 330 Nature, 624 (1987); pRShRARβ and pRShRARγ, Ishikawa et al., 4 Mol. Endocrin., 837 (1990); pRShRXRα, Mangelsdorf et al., 345 Nature, 224 (1990); and pRSmRXRβ and pRSmRXRγ, Mangelsdorf et al., 6 Genes & Devel., 329 (1992), the disclosures of which are herein incorporated by reference.

RARs = experiment: Co-transfection assay, summary for the RARs; format: cell-based, human
Experimental: as §1, §2, §3
as §4, with “Furthermore, it determines not only whether a compound interacts with a particular IR, but whether this interaction mimics (agonizes) or blocks (antagonizes) the effects of the native regulatory molecules on target gene expression, as well as the specificity and strength of this interaction.” left out

RXRα = target: T1, RXRα (Homo sapiens, UniProt P19793); experiment: Co-transfection assay, RXRα agonist activity; format: cell-based; conditions: CV-1 cells, 40 hours; read-out: RXRα Pot (potency, EC50)
T1 construct: expressed in transfected cells; host or cells: CV-1 (African green monkey kidney fibroblasts)
T1 sequence (P19793 1-462): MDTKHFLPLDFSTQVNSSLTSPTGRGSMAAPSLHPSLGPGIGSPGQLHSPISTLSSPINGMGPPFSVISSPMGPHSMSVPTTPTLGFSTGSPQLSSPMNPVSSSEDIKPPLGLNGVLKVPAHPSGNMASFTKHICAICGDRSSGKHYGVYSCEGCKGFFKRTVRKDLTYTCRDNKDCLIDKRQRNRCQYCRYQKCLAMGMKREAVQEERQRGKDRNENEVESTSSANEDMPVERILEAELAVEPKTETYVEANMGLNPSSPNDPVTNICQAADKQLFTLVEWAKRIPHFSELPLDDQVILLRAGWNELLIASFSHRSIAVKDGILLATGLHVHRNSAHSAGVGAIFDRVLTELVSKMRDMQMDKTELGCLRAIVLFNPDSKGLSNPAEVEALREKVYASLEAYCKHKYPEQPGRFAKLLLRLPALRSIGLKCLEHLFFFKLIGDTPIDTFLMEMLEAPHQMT

[1] = test system: ornithine decarboxylase (ODC); conditions: literature; cited from earlier work

SMILES	agonist type on RAR and RXR receptors (in words) (RAR and RXR receptors)	potency profile in comparison to 9-cis retinoic acid (in words) (RAR and RXR receptors)	RAR activity / selectivity (in words) (RARs)	other results
CC(/C=C/CC1CCCc2cc3c(cc21)C(C)(C)CCC3(C)C)=C\C(=O)O (racemic) [Compound 124b, (2E,4E)-3-Methyl-6-(1,2,3,4,5,6,7,8-octahydro-5,5,8,8-tetramethylanthracen-1-yl)hexa-2,4-dienoic acid]	pan-agonist	superior potency profiles	–	–
CC(/C=C/C=C1/CCCc2cc3c(cc21)C(C)(C)CCC3(C)C)=C\C(=O)O [Compound 101b, (2E,4E)-3-Methyl-6-[(Z)-3,4,5,6,7,8-hexahydro-5,5,8,8-tetramethyl-2H-anthracen-1-ylidene]hexa-2,4-dienoic acid]	pan-agonist	superior potency profiles	extremely potent RAR active	–
CC(/C=C/C=C1\CCCc2cc3c(cc21)C(C)(C)CCC3(C)C)=C\C(=O)O [Compound 109b, (2E,4E)-3-Methyl-6-[(E)-3,4,5,6,7,8-hexahydro-5,5,8,8-tetramethyl-2H-anthracen-1-ylidene]hexa-2,4-dienoic acid]	–	–	extremely potent RAR active; also recorded: RAR selective	–
CC(/C=C/C=C1\CCOc2cc3c(cc21)C(C)(C)CCC3(C)C)=C\C(=O)O [Compound 119b, (2E,4E)-3-Methyl-6-[(E)-2,3,6,7,8,9-hexahydro-6,6,9,9-tetramethyl-benzo[g]chromen-4-ylidene]hexa-2,4-dienoic acid]	–	–	extremely potent RAR active; also recorded: RAR selective	–
CC(/C=C/C=C1/CCOc2cc3c(cc21)C(C)(C)CCC3(C)C)=C\C(=O)O [Compound 144b]	pan-agonist	superior potency profiles	extremely potent RAR active	–
CCN1CC\C(=C/C=C/C(C)=C/C(=O)O)c2cc3c(cc21)C(C)(C)CCC3(C)C [Compound 147b, (2E,4E)-3-methyl-6-[(E)1-ethyl-6,6,9,9-tetramethyl-2,3,6,7,8,9-hexahydro-1H-benzo[g]quinolin-4-ylidene]hexa-2,4-dienoic acid]	–	–	–	EC50 (RXRα): > 10 µM
CC1=C(/C=C/C(C)=C/C=C/C(C)=C/C(=O)O)C(C)(C)CCC1 [retinoic acid]	–	–	–	inhibition of TPA induction of ODC (in words) [1]: inhibits this induction of ODC by TPA
